Source: patent publication US20200017495A1, “NOVEL HETEROCYCLIC COMPOUNDS AND THEIR USE IN PREVENTING OR TREATING BACTERIAL INFECTIONS” (priority 2017, published 2020)
Values joined by “and” are separate entries in the source; they are usually repeats but may differ in a detail not shown here. Identical values can stand only once. Like-named read-outs stand apart in the source and are kept apart here.

Legend:
[1] = system: Klebsiella pneumoniae (KPN) isolates; test: MIC of compounds alone and combined with antibacterials, broth microdilution (CLSI); assay type: cell-based
Summary of the method: (§1)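 First, log-phase suspensions are brought to 5.10^5 CFU/mL final in ca-MHB; plates then incubate 16-20 h at 35° C in air. Growth is judged visually, giving the compound MIC alone and the antibacterial MIC at each compound concentration.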

[2] = system: Escherichia coli (ECO) isolates; test: as above; assay type: cell-based
Summary of the method: as §1

CC1(C)S[C@@H]2[C@H](NC(=O)[C@H](N)c3ccc(O)cc3)C(=O)N2[C@H]1C(=O)O [AMX, Amoxicillin]
>1024 µg/mL: MIC ([1]; strain KPN 6299, genotype TEM-1, SHV-11, OXA-163) | MIC ([1]; strain KPN BAA-1898, genotype TEM-1, SHV-11, SHV-12, KPC-2) | MIC ([1]; strain KPN UFR68, genotype TEM-1, SHV-11, CTX-M-15, KPC-3)
2 µg/mL: MIC ATB in combination ([1]; KPN 6299, AF2 @ 8 μg/mL)
<0.25 µg/mL: MIC ATB in combination ([1]; KPN 160143, AF2 @ 8 μg/mL) | MIC ATB in combination ([1]; KPN 190551, AF2 @ 8 μg/mL) | MIC ATB in combination ([1]; KPN 200047, AF2 @ 8 μg/mL) | MIC ATB in combination ([1]; KPN 200327, AF2 @ 8 μg/mL) | MIC ATB in combination ([1]; KPN 260376, AF2 @ 8 μg/mL) | MIC ATB in combination ([1]; KPN UFR25, AF2 @ 8 μg/mL) | MIC ATB in combination ([1]; KPN UFR43, AF2 @ 8 μg/mL) | MIC ATB in combination ([1]; KPN UFR53, AF2 @ 8 μg/mL) | MIC ATB in combination ([1]; KPN UFR77, AF2 @ 8 μg/mL) | MIC ATB in combination ([2]; ECO 4133, AF2 @ 8 μg/mL) | MIC ATB in combination ([2]; ECO 5302, AF2 @ 8 μg/mL) | MIC ATB in combination ([2]; ECO 131119, AF2 @ 8 μg/mL)
>256 µg/mL: MIC ([1]; strain KPN 110376, genotype TEM-1, SHV-1, CTX-M-15, OXA-1, OXA-48) | MIC ([1]; strain KPN 121206, genotype SHV-1, NDM-1) | MIC ([1]; strain KPN 131119, genotype TEM-1, SHV-11, CTX-M-15, OXA-1, OXA-48) | MIC ([1]; strain KPN 140513, genotype TEM-1, SHV-11, CTX-M-15, KPC-3) | MIC ([1]; strain KPN 160143, genotype TEM-1, SHV-1, CTX-M-15, KPC-2, OXA-1) | MIC ([1]; strain KPN 190128, genotype TEM-1, SHV-32, CTX-M-15, OXA-1) | MIC ([1]; strain KPN 190270, genotype TEM-1, SHV-76, CTX-M-15, OXA-1) | MIC ([1]; strain KPN 190425, genotype TEM-1, SHV-1, CTX-M-15, OXA-1) | MIC ([1]; strain KPN 190551, genotype TEM-1, SHV-1, CTX-M-15, OXA-1) | MIC ([1]; strain KPN 200047, genotype TEM-1, SHV-32, CTX-M-15, OXA-1) | MIC ([1]; strain KPN 200327, genotype TEM-1, SHV-1, CTX-M-15, OXA-1) | MIC ([1]; strain KPN 260251, genotype TEM-1, SHV-11, SHV-12, CTX-M-15, KPC-2) | MIC ([1]; strain KPN 260252, genotype TEM-1, SHV-11, KPC-3) | MIC ([1]; strain KPN 260376, genotype SHV-1, SHV-49, OXA-1) | MIC ([1]; strain KPN 270077, genotype TEM-1, SHV-1, CTX-M-15) | MIC ([1]; strain KPN 700603, genotype SHV-18, OXA-2) | MIC ([1]; strain KPN ARA, genotype TEM-1, SHV-11, CTX-M-15, OXA-1, OXA-48) | MIC ([1]; strain KPN LIB, genotype SHV-11, OXA-48) | MIC ([1]; strain KPN UFR22_O, genotype TEM-1, SHV-1, OXA-48) | MIC ([1]; strain KPN UFR23, genotype TEM-1, SHV-1, OXA-48) | MIC ([1]; strain KPN UFR24, genotype TEM-1, SHV-2, SHV-11, OXA-1, OXA-48, OXA-47) | MIC ([1]; strain KPN UFR25, genotype TEM-1, SHV-11, CTX-M-15, OXA-162) | MIC ([1]; strain KPN UFR27, genotype TEM-1, SHV-28, CTX-M-15, OXA-204) | MIC ([1]; strain KPN UFR28, genotype TEM-1, SHV-1, CTX-M-15, OXA-1, OXA-232) | MIC ([1]; strain KPN UFR33, genotype TEM-2, SHV-12, CTX-M-15, OXA-1, OXA-10) | MIC ([1]; strain KPN UFR42, genotype SHV-2, CTX-M-15 OXA-1, OXA-181, NDM-1) | MIC ([1]; strain KPN UFR43, genotype SHV-11, CTX-M-15, CMY-2, OXA-1, NDM-1) | MIC ([1]; strain KPN UFR46, genotype TEM-1, SHV-12, CTX-M-15, OXA-9, VIM-1) | MIC ([1]; strain KPN UFR53, genotype TEM-1, IMP-1) | MIC ([1]; strain KPN UFR65, genotype TEM-1, SHV-11, KPC-2) | MIC ([1]; strain KPN UFR66, genotype TEM-1, SHV-11, CTX-M-15, KPC-2) | MIC ([1]; strain KPN UFR67, genotype TEM-1, SHV-11, KPC-3) | MIC ([1]; strain KPN UFR76, genotype TEM-155, SHV-11, ACT-1, OXA-2) | MIC ([1]; strain KPN UFR77, genotype CMY-2) | MIC ([1]; strain KPN UFR78, genotype TEM-1, SHV-1, CTX-M-15, CMY-2, OXA-1, OXA-48) | MIC ([1]; strain KPN UFR79, genotype DHA-1, OXA-1) | MIC ([1]; strain KPN UFR80, genotype SHV-11, DHA-1, OXA-1) | MIC ([1]; strain KPN UFR81, genotype TEM-1, SHV-1, DHA-1, OXA-48)
64 µg/mL: MIC ATB in combination ([1]; KPN UFR80, AF2 @ 8 μg/mL)
>128 µg/mL: MIC [1] | MIC ([1]; strain KPN 140347, genotype CTX-M-15, NDM-1, antibiotic alone) | MIC ([1]; strain KPN UFR162, genotype SHV-28, TEM-1, CTX-M-15, OXA-181, OXA-181, NDM-1, antibiotic alone) | MIC ([1]; strain KPN UFR163, genotype TEM-1, SHV-1, CTX-M-15, OXA-232, OXA-9, NDM-1, qnrB1, qepA, RmtB, antibiotic alone) | MIC ([1]; strain KPN UFR164, genotype SHV-11, CTX-M-15, OXA-1, OXA-181, NDM-1, antibiotic alone) | MIC ([1]; strain KPN UFR165, genotype TEM-1, SHV-11, CTX-M-15, OXA-1, OXA-181, NDM-1, antibiotic alone) | MIC ([1]; strain KPN UFR166, genotype TEM-1, TEM-1, CTX-M-15, OXA-181, OXA-9, NDM-1, antibiotic alone) | MIC ([1]; strain KPN UFR167, genotype TEM-1, SHV-12, CTX-M-15, OXA-9, NDM-1, antibiotic alone) | MIC ([1]; strain KPN UFR168, genotype SHV-2, CTX-M-15, OXA-1, OXA-181, NDM-1, ArmA, antibiotic alone) | MIC ([1]; strain KPN UFR169, genotype TEM-1, SHV-28, CTX-M-15, CMY-4, OXA-1, NDM-1, antibiotic alone) | MIC ([1]; strain KPN UFR170, genotype TEM-1, SHV-28, CTX-M-15, CMY-6, OXA-1, OXA-9, NDM-1, antibiotic alone) | MIC ([1]; strain KPN UFR171, genotype TEM-1, SHV-28, CTX-M-15, OXA-1, OXA-10, NDM-1, RmtA, antibiotic alone) | MIC ([1]; strain KPN UFR172, genotype SHV-38, CMY-16, OXA-10, NDM-1, antibiotic alone) | MIC ([1]; strain KPN UFR215, genotype SHV-27, CTX-M-15) | MIC ([1]; strain KPN UFR216, genotype SHV-28, CTX-M-15) | MIC ([1]; strain KPN UFR217, genotype TEM-1, SHV-1, CTX-M-15) | MIC ([1]; strain KPN UFR219, genotype SHV-12, CTX-M-15) | MIC ([1]; strain KPN UFR220, genotype TEM-1, SHV-12, DHA-1) | MIC ([1]; strain KPN UFR221, genotype TEM-1, SHV-11, CTX-M-14, DHA-1) | MIC ([1]; strain KPN UFR229O, genotype SHV-12, VIM-1, antibiotic alone)
>128 µg/mL and 128 µg/mL: MIC ATB in combination [2]
<=0.25 μg/mL: MIC ATB in combination ([1]; KPN ARA, AF2 @ 8 μg/mL) | MIC ATB in combination ([1]; KPN LIB, AF2 @ 8 μg/mL) | MIC ATB in combination ([1]; KPN UFR28, AF2 @ 8 μg/mL)
>128 µg/mL and 128 µg/mL and <128 µg/mL: MIC ATB in combination [1]
32 µg/mL: MIC ATB in combination ([1]; KPN 200047, CLA @ 4 μg/mL) | MIC ATB in combination ([1]; KPN 200327, CLA @ 4 μg/mL) | MIC ATB in combination ([1]; KPN 270077, AF2 @ 8 μg/mL) | MIC ATB in combination ([1]; KPN 270077, CLA @ 4 μg/mL) | MIC ATB in combination ([1]; KPN UFR24, AF2 @ 8 μg/mL) | MIC ATB in combination ([1]; KPN UFR218, CLA @ 4 μg/mL)
8 µg/mL: MIC ATB in combination ([1]; KPN 700603, CLA @ 4 μg/mL) | MIC ATB in combination ([1]; KPN UFR33, AF2 @ 8 μg/mL)
4 µg/mL: MIC ATB in combination ([1]; KPN 260251, AF2 @ 8 μg/mL) | MIC ATB in combination ([1]; KPN 700603, AF2 @ 8 μg/mL) | MIC ATB in combination ([1]; KPN UFR23, AF2 @ 8 μg/mL)
>512 µg/mL: MIC ATB in combination ([1]; KPN 6299, CLA @ 4 μg/mL) | MIC ATB in combination ([1]; KPN 131119, CLA @ 4 μg/mL) | MIC ATB in combination ([1]; KPN BAA-1898, CLA @ 4 μg/mL) | MIC ATB in combination ([1]; KPN LIB, CLA @ 4 μg/mL)
0.5 µg/mL: MIC ATB in combination ([1]; KPN 110376, AF2 @ 8 μg/mL) | MIC ATB in combination ([1]; KPN UFR22_O, AF2 @ 8 μg/mL)
